Data as given in patent publication US11285156B2, “Substituted piperazines as KRAS G12C inhibitors” (Amgen Inc., priority 2018, dated 2022).
Where two headings read alike, the source gives them in different places.

Legend:
[1] = target: GDP-bound KRAS protein (aa 1-169), containing both G12C and C118A amino acid substitutions (Homo sapiens (Human), UniProt P01116, C118A/G12C); experiment: Coupled nucleotide exchange assay (SOS-mediated nucleotide exchange, AlphaScreen); assay type: biochemical; details: 5 min compound pre-incubation; for IC50: read-out: Coupled exchange IC50 (5 min; μM)
Chain of GDP-bound KRAS protein (aa 1-169), containing both G12C and C118A amino acid substitutions (P01116 other isoform, or with tags, fused parts or gaps G12C/C118A): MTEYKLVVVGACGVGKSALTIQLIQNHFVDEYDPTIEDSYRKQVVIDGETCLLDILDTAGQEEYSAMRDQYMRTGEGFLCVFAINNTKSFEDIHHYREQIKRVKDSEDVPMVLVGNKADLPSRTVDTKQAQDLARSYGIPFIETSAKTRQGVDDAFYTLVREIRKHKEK

[2] = system: Phosphorylation of ERK1/2 in MIA PaCa-2 cells; experiment: Phospho-ERK1/2 MSD assay in MIA PaCa-2 cells; assay type: cell-based; details: read-out: p-ERK IC50 (2 h, MiaPaCa-2; μM), 2 h compound treatment, MIA PaCa-2 cells, EGF stimulated
Procedure, shortened: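 Phospho-ERK1/2 measured by MSD electrochemiluminescence kit in RIPA lysates of MIA PaCa-2 cells. Cells were treated with compound titrations for 2 or 4 h at 37 °C, 5% CO2, followed by a 10 min pulse of 10 ng/mL EGF.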

[3] = system: Phosphorylation of ERK1/2 in A549 cells; experiment: Phospho-ERK1/2 MSD assay in A549 cells; assay type: cell-based; details: Homo sapiens, A549, 2 h, read-out: p-ERK IC50 (2 h, A549; μM), 2 h compound treatment, A549 cells, EGF stimulated
Procedure, shortened: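 Readout: MSD phospho-ERK1/2 signal after compound (2 or 4 h) and 10 min EGF stimulation at 10 ng/mL.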

Row | SMILES | IC50 [1] | IC50 ([2]; Homo sapiens, MIA PaCa-2, 2 h) | IC50 [3] | IC50 [2] | Coupled exchange IC50 (5 min; μM) [1]
1 | C=CC(=O)N1CCN(c2nc(=O)n(CC(C)(C)C)c3nc(-c4ccccc4F)c(Cl)cc23)[C@@H](C)C1 [Example 106-2, 6-Chloro-1-(2,2-dimethylpropyl)-7-(2-fluorophenyl)-4-[(2S)-2-methyl-4-prop-2-enoyl-piperazin-1-yl]pyrido[2,3-d]pyrimidin-2-one] | 1.01 µM | 5.31 µM | > 7.5 µM |  | 
2 | C=CC(=O)N1CCN(c2nc(=O)n(CC(C)(C)C)c3nc(-c4ccccc4F)c(Cl)cc23)C[C@@H]1CO [Example 106-3, 6-Chloro-1-(2,2-dimethylpropyl)-7-(2-fluorophenyl)-4-[(3R)-3-(hydroxymethyl)-4-prop-2-enoyl-piperazin-1-yl]pyrido[2,3-d]pyrimidin-2-one] | 8.34 µM | 10 µM | > 7.5 µM |  | 
3 | C=CC(=O)N1C[C@H](C)N(c2nc(=O)n(CC(C)(C)OC)c3nc(-c4ccccc4F)c(Cl)cc23)C[C@H]1C [Example 106-4, 6-Chloro-4-[(2S,5R)-2,5-dimethyl-4-prop-2-enoyl-piperazin-1-yl]-7-(2-fluorophenyl)-1-(2-methoxy-2-methyl-propyl)pyrido[2,3-d]pyrimidin-2-one] | 5.04 µM | 2.45 µM | > 7.5 µM |  | 
4 | C=CC(=O)N1CCN(c2nc(=O)n(CC(C)(C)OC)c3nc(-c4ccccc4F)c(Cl)cc23)CC1 [Example 106-5, 6-Chloro-7-(2-fluorophenyl)-1-(2-methoxy-2-methyl-propyl)-4-(4-prop-2-enoylpiperazin-1-yl)pyrido[2,3-d]pyrimidin-2-one] | 6.13 µM | 1.46 µM | > 7.5 µM |  | 
5 | C=CC(=O)N1C[C@@H](C)N(c2nc(=O)n(-c3c(C)ccnc3C(C)C)c3nc(-c4ccccc4F)c(Cl)nc23)[C@@H](C)C1 [Example 106-7-2, 6-Chloro-4-[(2R,6S)-2,6-dimethyl-4-prop-2-enoyl-piperazin-1-yl]-7-(2-fluorophenyl)-1-(2-isopropyl-4-methyl-3-pyridyl)pteridin-2-one] | 0.129 µM | 0.271 µM | > 7.5 µM |  | 
6 | C=CC(=O)N1C[C@H](C)N(c2nc(=O)n(CC(C)(C)C#N)c3nc(-c4ccccc4F)c(Cl)cc23)C[C@H]1C [Example 106-8, 3-[6-Chloro-4-[(2S,5R)-2,5-dimethyl-4-prop-2-enoyl-piperazin-1-yl]-7-(2-fluorophenyl)-2-oxo-pyrido[2,3-d]pyrimidin-1-yl]-2,2-dimethyl-propanenitrile] | 3.35 µM | 1.88 µM | > 7.5 µM |  | 
7 | C=CC(=O)N1CCN(c2nc(=O)n(CC(C)(C)C#N)c3nc(-c4ccccc4F)c(Cl)cc23)[C@@H](C)C1 [Example 106-9, 3-[6-Chloro-7-(2-fluorophenyl)-4-[(2S)-2-methyl-4-prop-2-enoyl-piperazin-1-yl]-2-oxo-pyrido[2,3-d]pyrimidin-1-yl]-2,2-dimethyl-propanenitrile] | 3.7 µM | 2.24 µM | > 7.5 µM |  | 
8 | C=CC(=O)N1C[C@H](C)N(c2nc(=O)n(-c3c(C(C)C)nc(NC)nc3C(C)C)c3nc(-c4ccccc4F)c(Cl)cc23)C[C@H]1C [Example 107-1, 4-((2S,5R)-4-Acryloyl-2,5-dimethylpiperazin-1-yl)-6-chloro-1-(4,6-diisopropyl-2-(methylamino)pyrimidin-5-yl)-7-(2-fluorophenyl)pyrido[2,3-d]pyrimidin-2(1H)-one] | 0.026 µM | 0.064 µM | 5.57 µM |  | 
9 | C=CC(=O)N1C[C@H](C)N(c2nc(=O)n(-c3c(C(C)C)nc(N(C)C)nc3C(C)C)c3nc(-c4ccccc4F)c(Cl)cc23)C[C@H]1C [Example 107-2, 6-Chloro-1-[2-(dimethylamino)-4,6-diisopropyl-pyrimidin-5-yl]-4-[(2S,5R)-2,5-dimethyl-4-prop-2-enoyl-piperazin-1-yl]-7-(2-fluorophenyl)pyrido [2,3-d]pyrimidin-2-one] | 0.098 µM | 0.299 µM | 1.25 µM |  | 
10 | C=CC(=O)N1C[C@H](C)N(c2nc(=O)n(-c3c(C(C)C)nc(N4CCOCC4)nc3C(C)C)c3nc(-c4ccccc4F)c(Cl)cc23)C[C@H]1C [Example 107-3, 6-Chloro-1-(4,6-diisopropyl-2-morpholino-pyrimidin-5-yl)-4-[(2S,5R)-2,5-dimethyl-4-prop-2-enoyl-piperazin-1-yl]-7-(2-fluorophenyl)pyrido [2,3-d]pyrimidin-2-one] | 0.114 µM | 0.144 µM | 3.73 µM |  | 
11 | C=CC(=O)N1C[C@H](C)N(c2nc(=O)n(-c3c(C(C)C)nc(NCCN(C)C)nc3C(C)C)c3nc(-c4ccccc4F)c(Cl)cc23)C[C@H]1C [Example 107-4, 6-Chloro-1-[2-[2-(dimethylamino)ethylamino]-4,6-diisopropyl-pyrimidin-5-yl]-4-[(2S,5R)-2,5-dimethyl-4-prop-2-enoyl-piperazin-1-yl]-7-(2-fluorophenyl)pyrido [2,3-d]pyrimidin-2-one] | 0.051 µM | 0.085 µM | > 7.5 µM |  | 
12 | C=CC(=O)N1C[C@H](C)N(c2nc(=O)n(-c3c(C(C)C)nc(N4CCC4)nc3C(C)C)c3nc(-c4ccccc4F)c(Cl)cc23)C[C@H]1C [Example 107-5, 1-[2-(Azetidin-1-yl)-4,6-diisopropyl-pyrimidin-5-yl]-6-chloro-4-[(2S,5R)-2,5-dimethyl-4-prop-2-enoyl-piperazin-1-yl]-7-(2-fluorophenyl)pyrido [2,3-d]pyrimidin-2-one] | 0.103 µM | 0.3 µM | 3.25 µM |  | 
13 | C=CC(=O)N1C[C@H](C)N(c2nc(=O)n(-c3c(C(C)C)ncnc3C3CC3)c3nc(-c4ccccc4F)c(Cl)cc23)C[C@H]1C [Example 108-1, 4-((2S,5R)-4-Acryloyl-2,5-dimethylpiperazin-1-yl)-6-chloro-1-(4-cyclopropyl-6-isopropylpyrimidin-5-yl)-7-(2-fluorophenyl)pyrido[2,3-d]pyrimidin-2(1H)-one] | 0.009 µM |  | > 7.5 µM | 0.039 µM | 
14 | C=CC(=O)N1C[C@H](C)N(c2nc(=O)n(-c3c(C(C)C)ncnc3C3CC3)c3nc(-c4ccccc4C)c(Cl)cc23)C[C@H]1C [Example 108-2, 6-Chloro-1-(4-cyclopropyl-6-isopropyl-pyrimidin-5-yl)-4-[(2S,5R)-2,5-dimethyl-4-prop-2-enoyl-piperazin-1-yl]-7-(o-tolyl)pyrido[2,3-d]pyrimidin-2-one] | 0.049 µM |  | > 7.5 µM | 0.032 µM | 
15 | C=CC(=O)N1C[C@H](C)N(c2nc(=O)n(-c3c(CC)ncnc3C(C)C)c3nc(-c4ccccc4F)c(Cl)cc23)C[C@H]1C [Example 109-1, 4-((2S,5R)-4-Acryloyl-2,5-dimethylpiperazin-1-yl)-6-chloro-1-(4-ethyl-6-isopropylpyrimidin-5-yl)-7-(2-fluorophenyl)pyrido[2,3-d]pyrimidin-2(1H)-one] | 0.194 µM | 0.052 µM | > 7.5 µM |  | 
16 | C=CC(=O)N1C[C@H](C)N(c2nc(=O)n(-c3c(CC)ncnc3C(C)C)c3nc(-c4ccccc4C)c(Cl)cc23)C[C@H]1C [Example 109-2, 6-Chloro-4-[(2S,5R)-2,5-dimethyl-4-prop-2-enoyl-piperazin-1-yl]-1-(4-ethyl-6-isopropyl-pyrimidin-5-yl)-7-(o-tolyl)pyrido[2,3-d]pyrimidin-2-one] |  | 0.098 µM | > 7.5 µM |  | 0.107 µM
17 | C=CC(=O)N1C[C@H](C)N(c2nc(=O)n(CC(C)(C)C)c3nc(-c4ccccc4F)c(Cl)cc23)C[C@H]1C [Example 110-1, 4-((2S,5R)-4-Acryloyl-2,5-dimethylpiperazin-1-yl)-6-chloro-7-(2-fluorophenyl)-1-neopentylpyrido[2,3-d]pyrimidin-2(1H)-one] | 0.57 µM | 1.12 µM | > 7.5 µM |  | 
18 | C=CC(=O)N1C[C@H](C)N(c2nc(=O)n(-c3c(C)cc(CN(C)C)nc3C(C)C)c3nc(-c4ccccc4F)c(Cl)cc23)C[C@H]1C [Example 121-1, 4-((2S,5R)-4-Acryloyl-2,5-dimethylpiperazin-1-yl)-6-chloro-1-(6-((dimethylamino)methyl)-2-isopropyl-4-methylpyridin-3-yl)-7-(2-fluorophenyl)pyrido[2,3-d]pyrimidin-2(1H)-one] | 0.195 µM | 0.086 µM | > 7.5 µM |  | 
19 | C=CC(=O)N1C[C@H](C)N(c2nc(=O)n(-c3c(C)cc(CN4CCCC4)nc3C(C)C)c3nc(-c4ccccc4F)c(Cl)cc23)C[C@H]1C [Example 121-2, 6-Chloro-4-[(2S,5R)-2,5-dimethyl-4-prop-2-enoyl-piperazin-1-yl]-7-(2-fluorophenyl)-1-[2-isopropyl-4-methyl-6-(pyrrolidin-1-ylmethyl)-3-pyridyl]pyrido[2,3-d]pyrimidin-2-one] | 0.096 µM | 0.081 µM | > 7.5 µM |  | 
20 | C=CC(=O)N1[C@H](C)CN(c2nc(=O)n(-c3c(C(C)C)ccnc3C(C)C)c3nc(-c4ccccc4C)c(Cl)cc23)C[C@@H]1C [Example 124-11, 6-Chloro-1-(2,4-diisopropyl-3-pyridyl)-4-[(3R,5S)-3,5-dimethyl-4-prop-2-enoyl-piperazin-1-yl]-7-(o-tolyl)pyrido[2,3-d]pyrimidin-2-one] | 0.075 µM | 0.098 µM | > 7.5 µM |  | 
